Reference: article PMC8985094, “Chemical constituents from Carica papaya Linn. leaves as potential cytotoxic, EGFR^wt and aromatase (CYP19A) inhibitors; a study supported by molecular docking” (RSC Advances, 2022)
Like-named read-outs stand apart in the source and are kept apart here.

Experiments:
EGFR^wt kinase = EGFR^wt kinase (Homo sapiens, UniProt P00533); assay: EGFR^wt kinase inhibition assay (BPS Kinase Assay Kit, Kinase-Glo)
Description: Then, the reaction was stopped by the addition of a detecting reagent (Kinase-Glo Max reagent), followed by incubation at room temperature for another 15 min. Finally, luminescence was measured using the microplate Robonik P2000 ELISA Reader.

MCF-7 cell line = assay: MTT cytotoxicity assay in breast cancer cell line (MCF-7); format: cell-based; settings: Homo sapiens, read-out: IC50 on MCF-7 cell lines
Description: The cytotoxic effect of the isolated compounds from C. papaya on MCF-7 cells line was evaluated using MTT assay which measures metabolic activity as an indicator of cellular viability and proliferation.
Briefly, breast cancer cell line (MCF-7) were obtained from American Type Culture Collection and cultured in DMEM medium (Invitrogen/Life Technologies) supplemented with 10% FBS (Hyclone, USA). Insulin (10 μg mL^−1, Sigma-Aldrich, USA) and 1% penicillin–streptomycin. the cells were seeded in 96-well plates (VWR, Switzerland) at cell density 1.2–1.8 × 10^4 cells per well. […] After treatments, the medium was removed from all wells of the plate and 20 μL of the MTT reagent (Sigma-Aldrich, USA) (0.5 mg mL^−1) in PBS was added and incubated for 3.5 h at 37 °C. The solution was removed and 50 μL of DMSO was added, incubated for 5 min and the absorbance was measured at 570 nm.
(§1) Results are expressed as mean ± standard deviation (SD) based on triplicate experiments. The IC50 values of the tested compounds were determined using curve fitting in the R programming language and associated packages including Magrittr,[45] drc[46] and ggplot2.[47] Graphs and figures were generated using R console and PyMOL (PyMOL Molecular Graphics System, Schrödinger).

aromatase (CYP19A) = molecular target: T1, aromatase (CYP19A) (Homo sapiens, UniProt P11511); assay: Aromatase (CYP19A) inhibitor screening kit (fluorometric); format: biochemical
T1 construct: purchased Bio Vision
T1 sequence (P11511 1-503): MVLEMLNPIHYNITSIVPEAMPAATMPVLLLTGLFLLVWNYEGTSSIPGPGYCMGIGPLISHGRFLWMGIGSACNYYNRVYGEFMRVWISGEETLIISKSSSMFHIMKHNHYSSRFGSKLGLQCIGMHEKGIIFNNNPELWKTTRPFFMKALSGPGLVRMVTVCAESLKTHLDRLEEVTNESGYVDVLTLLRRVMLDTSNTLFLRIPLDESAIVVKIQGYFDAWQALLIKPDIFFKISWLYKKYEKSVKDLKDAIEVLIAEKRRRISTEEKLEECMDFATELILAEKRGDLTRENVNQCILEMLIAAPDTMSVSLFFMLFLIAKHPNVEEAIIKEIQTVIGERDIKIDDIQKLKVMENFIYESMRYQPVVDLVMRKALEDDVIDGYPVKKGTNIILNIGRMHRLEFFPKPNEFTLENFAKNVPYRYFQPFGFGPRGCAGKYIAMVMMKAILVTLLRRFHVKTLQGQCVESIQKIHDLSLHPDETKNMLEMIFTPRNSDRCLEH
Description: Breast cancer is mostly reliant on estrogen or progesterone, especially in postmenopausal females. […] Aromatase is the key enzyme that acts on androgen precursors for the synthesis of estrogen. Aromatase inhibitors are used to either block the production of estrogen or block the action of estrogen on its receptors and for treatment of estrogen dependant breast cancer.[32,33]
The compounds were dissolved in DMSO in concentrations ranging from 10 to 10^4 nM. The recombinant human aromatase stock was prepared according to the protocol and the samples were added and the plate was incubated for 10 min at 37 °C to allow tested compounds to interact with the aromatase.
as §1

[1] = MCF7, MTT assay, 24 h treatment, mean ± SD
[2] = in vitro enzymatic inhibition, recombinant human aromatase, mean ± SD, read-out: IC50 Aromatase

Chain of EGFR^wt kinase (P00533 25-1210): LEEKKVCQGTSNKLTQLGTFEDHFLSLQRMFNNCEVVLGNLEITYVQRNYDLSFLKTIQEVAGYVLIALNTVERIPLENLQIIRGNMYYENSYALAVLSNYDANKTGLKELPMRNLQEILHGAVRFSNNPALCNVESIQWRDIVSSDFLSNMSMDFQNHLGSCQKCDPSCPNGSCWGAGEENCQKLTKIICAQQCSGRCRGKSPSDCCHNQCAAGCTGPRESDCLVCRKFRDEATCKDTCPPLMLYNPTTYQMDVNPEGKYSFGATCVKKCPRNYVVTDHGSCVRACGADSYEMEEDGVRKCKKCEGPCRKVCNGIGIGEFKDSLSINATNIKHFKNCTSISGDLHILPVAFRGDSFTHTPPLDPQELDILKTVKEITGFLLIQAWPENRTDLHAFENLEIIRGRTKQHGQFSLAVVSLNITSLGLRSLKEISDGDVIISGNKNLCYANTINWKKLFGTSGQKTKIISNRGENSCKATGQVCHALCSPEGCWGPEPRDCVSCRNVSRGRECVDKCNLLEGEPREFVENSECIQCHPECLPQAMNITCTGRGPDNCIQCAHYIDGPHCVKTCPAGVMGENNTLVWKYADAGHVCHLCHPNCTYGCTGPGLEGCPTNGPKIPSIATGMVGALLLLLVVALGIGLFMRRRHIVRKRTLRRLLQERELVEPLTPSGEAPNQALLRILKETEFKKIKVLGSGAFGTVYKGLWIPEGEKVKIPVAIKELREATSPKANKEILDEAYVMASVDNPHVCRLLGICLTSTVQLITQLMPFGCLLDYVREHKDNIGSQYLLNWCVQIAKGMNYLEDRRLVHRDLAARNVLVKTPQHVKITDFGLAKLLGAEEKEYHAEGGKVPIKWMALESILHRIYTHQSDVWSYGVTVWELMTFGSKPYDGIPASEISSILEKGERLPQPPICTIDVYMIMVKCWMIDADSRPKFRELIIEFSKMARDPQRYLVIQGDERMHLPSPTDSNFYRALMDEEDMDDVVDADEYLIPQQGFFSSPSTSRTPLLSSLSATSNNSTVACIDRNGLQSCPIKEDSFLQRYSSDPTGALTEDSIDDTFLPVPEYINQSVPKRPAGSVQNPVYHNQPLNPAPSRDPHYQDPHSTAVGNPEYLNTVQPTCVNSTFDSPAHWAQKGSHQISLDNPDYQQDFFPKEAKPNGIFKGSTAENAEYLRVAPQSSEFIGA

| IC50 (EGFR^wt kinase) [nM] | IC50 (aromatase (CYP19A); [2]) [nM] | Compound | IC50 (MCF-7 cell line; MCF7, 24 h) [nM] | IC50 (aromatase (CYP19A)) [nM] | IC50 (MCF-7 cell line; [1]) [nM] |
| --- | --- | --- | --- | --- | --- |
| 37.3 ± 1.9 | 94.1 ± 5.51 | COC(=O)c1cc(O)c(O)c(O)c1 [Compound 2, methyl gallate] | – | – | 1110 ± 60 |
| 68.8 ± 3.5 | 208 ± 12.2 | CC1(C)C[C@H](O)C[C@@]2(C)OC(=O)C=C12 [Compound 3, loliolide] | – | – | 28200 ± 1610 |
| 89.6 ± 4.6 | 77.4 ± 4.53 | C[C@@H]1O[C@@H](OC[C@H]2O[C@@H](Oc3c(-c4ccc(O)cc4)oc4cc(O)cc(O)c4c3=O)[C@H](O[C@@H]3O[C@@H](C)[C@H](O)[C@@H](O)[C@H]3O)[C@@H](O)[C@@H]2O)[C@H](O)[C@H](O)[C@H]1O [Compound 5, kaempferol 3-O-(2′′,6′′-di-α-O-rhamnopyranosyl)-β-glucopyranoside] | – | – | 2470 ± 140 |
| 64.5 ± 3.3 | 335 ± 19.6 | C[C@@H]1O[C@@H](O[C@H]2[C@H](Oc3c(-c4ccc(O)cc4)oc4cc(O)cc(O)c4c3=O)O[C@H](CO)[C@@H](O)[C@@H]2O)[C@H](O)[C@H](O)[C@H]1O [Compound 6, kaempferol 3-O-(2′′-O-α-L-rhamnopyranosyl)-β-D-glucopyranoside] | – | – | 3580 ± 200 |
| 83.4 ± 4.2 | 354 ± 20.7 | O=c1c(O[C@@H]2O[C@H](CO)[C@@H](O)[C@H](O)[C@H]2O)c(-c2ccc(O)c(O)c2)oc2cc(O)cc(O)c12 [Compound 7, quercetin-3-O-β-D-glucopyranoside] | – | – | 13100 ± 750 |
| 41.1 ± 2.1 | 92.8 ± 5.44 | C[C@@H]1O[C@@H](OC[C@H]2O[C@@H](Oc3c(-c4ccc(O)cc4)oc4cc(O)cc(O)c4c3=O)[C@H](O)[C@@H](O)[C@@H]2O)[C@H](O)[C@H](O)[C@H]1O [Compound 8, kaempferol-3-O-rutinoside] | – | – | 4940 ± 280 |
| 100 ± 5.1 | 436 ± 25.6 | COc1cc(-c2oc3cc(O)cc(O)c3c(=O)c2OC2OC(CO)C(O)C(O)C2O)ccc1O [Compound 9, isorhamnetin 3-O-β-D-glucopyranoside] | – | – | 9510 ± 540 |

| Compound | IC50 (EGFR^wt kinase) [nM] | IC50 (aromatase (CYP19A); [2]) [nM] | IC50 (MCF-7 cell line; MCF7, 24 h) [nM] | IC50 (aromatase (CYP19A)) [nM] | IC50 (MCF-7 cell line; [1]) [nM] |
| --- | --- | --- | --- | --- | --- |
| C[C@@H]1N[C@@H]2CCCCCCCC(=O)O[C@H]3CC[C@@H](CCCCCCCC(=O)O[C@H]1CC2)N[C@H]3C [Compound 1, carpaine] | 47.6 ± 2.4 | – | 13700 ± 780 | 108 ± 6.32 | – |
| C[C@@H]1O[C@@H](OC[C@H]2O[C@@H](Oc3c(-c4ccc(O)c(O)c4)oc4cc(O)cc(O)c4c3=O)[C@H](O)[C@@H](O)[C@@H]2O)[C@H](O)[C@H](O)[C@H]1O [Compound 4, quercetin-3-O-rutinoside] | 44.5 ± 2.3 | 148 ± 8.64 | – | – | 25600 ± 1460 |
